# According to publication PMC9301698 (ACS Omega, 2022):
# What was measured:
# butyrylcholinesterase = details: read-out: butyrylcholinesterase inhibitory activity IC50; cited from earlier work
# [1] = MTT cytotoxicity assay in mammalian cells; assay type: cell-based; details: mouse, RAW 264.7 cells
# RAW 264.7 cells = test: MTT cytotoxicity assay in mammalian cells; assay type: cell-based; details: Mus musculus, RAW264.7, read-out: IC50 RAW 264.7, MTT
# A549 cells = test: MTT cytotoxicity assay, lung cancer; assay type: cell-based, human; details: Homo sapiens, A549, read-out: IC50 A549 (lung cancer)
# [2] = MTT cytotoxicity assay, colorectal cancer; assay type: cell-based, human; details: human, SW480 cells (colorectal cancer)
# SW480 cells = test: MTT cytotoxicity assay, colorectal cancer; assay type: cell-based, human; details: Homo sapiens, SW480, read-out: IC50 SW480 (Colorectal cancer), MTT
# K562 cells = test: MTT cytotoxicity assay, leukemia; assay type: cell-based, human; details: Homo sapiens, K562, read-out: IC50 K562 (leukemia), MTT
# [3] = cytotoxicity screening, summary over cell lines; assay type: cell-based; details: mouse, human
# HepG2 cell lines = details: read-out: cytotoxicity against HepG2 cell lines IC50; cited from earlier work
# α-glucosidase [4] = target: T1, α-glucosidase (Saccharomyces cerevisiae, UniProt P53341); test: colorimetric α-glucosidase inhibitory assay; assay type: biochemical; details: mean ± SD
# T1 sequence (P53341 whole entry): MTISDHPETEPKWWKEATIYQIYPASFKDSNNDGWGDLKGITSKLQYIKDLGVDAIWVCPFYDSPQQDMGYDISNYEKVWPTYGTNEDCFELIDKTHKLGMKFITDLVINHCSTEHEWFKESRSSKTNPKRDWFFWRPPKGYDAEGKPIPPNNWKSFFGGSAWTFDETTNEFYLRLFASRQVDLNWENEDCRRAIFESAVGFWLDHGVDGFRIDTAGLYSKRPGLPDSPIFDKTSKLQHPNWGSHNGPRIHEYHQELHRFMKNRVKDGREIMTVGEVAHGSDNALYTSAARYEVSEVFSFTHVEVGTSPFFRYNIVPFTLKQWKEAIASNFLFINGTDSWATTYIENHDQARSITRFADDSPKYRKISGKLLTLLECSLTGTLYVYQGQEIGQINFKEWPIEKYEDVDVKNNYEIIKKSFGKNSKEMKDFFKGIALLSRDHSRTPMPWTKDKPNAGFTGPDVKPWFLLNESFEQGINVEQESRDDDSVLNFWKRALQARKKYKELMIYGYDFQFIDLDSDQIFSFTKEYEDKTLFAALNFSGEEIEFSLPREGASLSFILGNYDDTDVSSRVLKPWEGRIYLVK
# α-amylase = target: T2, α-amylase (Sus scrofa, UniProt P00690); test: α-amylase inhibitory assay; assay type: biochemical; details: at a concentration of 100 μg/mL; mean ± SD
# T2 sequence (P00690 16-511): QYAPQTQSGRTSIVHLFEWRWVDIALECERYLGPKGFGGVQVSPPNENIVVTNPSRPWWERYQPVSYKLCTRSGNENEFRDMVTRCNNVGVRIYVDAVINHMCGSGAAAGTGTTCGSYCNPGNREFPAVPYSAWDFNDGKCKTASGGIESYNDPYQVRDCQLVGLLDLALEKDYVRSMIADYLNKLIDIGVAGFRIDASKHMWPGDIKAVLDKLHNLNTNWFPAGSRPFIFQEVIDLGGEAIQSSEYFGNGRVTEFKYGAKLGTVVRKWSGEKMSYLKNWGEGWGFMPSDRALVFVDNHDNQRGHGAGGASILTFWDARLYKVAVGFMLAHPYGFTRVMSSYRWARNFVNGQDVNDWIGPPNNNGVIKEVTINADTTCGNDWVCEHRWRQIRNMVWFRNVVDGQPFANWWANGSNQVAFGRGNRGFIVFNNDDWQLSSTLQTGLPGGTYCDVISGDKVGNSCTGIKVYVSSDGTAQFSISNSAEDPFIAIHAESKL
# [5] = MTT cytotoxicity assay, lung cancer; assay type: cell-based, human; details: human, A549 cells (lung cancer)
# [6] = MTT cytotoxicity assay, leukemia; assay type: cell-based, human; details: human, K562 cells (leukemia)
# HT-29 = details: read-out: cytotoxicity against HT-29 IC50; cited from earlier work
# α-glucosidase [7] = target: T1, α-glucosidase; details: read-out: α-glucosidase inhibitory activity IC50; cited from earlier work
# [8] = cited from earlier work
molecule,measurement,setting,value
"COc1ccc(-c2coc3c4c(ccc3c2=O)OC(C)(C)C=C4)cc1OC [4′,5′-dimethoxy-6,6-dimethylpyranoisoflavone]",IC50,butyrylcholinesterase,2.34 µM
"C=C(C)C(O)Cc1c(O)c(CC=C(C)C)c2occ(-c3ccc(O)cc3)c(=O)c2c1O (centres unmarked) [Compound 13, isoerysenegalensein E]","viability at 24 h, 6.25 μg/mL",[1],103 ± 8.01%
same,"viability at 24 h, 12.5 μg/mL",[1],100 ± 2.13%
same,"viability at 24 h, 25 μg/mL",[1],61.9 ± 3.12%
same,"viability at 24 h, 50 μg/mL",[1],47.3 ± 2.94%
same,"viability at 24 h, 100 μg/mL",[1],29.4 ± 3.72%
same,IC50,RAW 264.7 cells,56.1 µM
same,IC50,A549 cells,> 100 µM
same,viability at 6.25 μg/mL,[2],94 ± 4.18%
same,viability at 12.5 μg/mL,[2],92.8 ± 1.57%
same,viability at 25 μg/mL,[2],90.4 ± 1.91%
same,viability at 50 μg/mL,[2],89.5 ± 3.29%
same,viability at 100 μg/mL,[2],59.5 ± 1.3%
same,IC50,SW480 cells,> 100 µM
same,IC50,K562 cells,> 100 µM
same,viability,[3]; RAW 264.7 and SW480 cells,5.66 to 77%
COc1cc(OC)c(-c2coc3c4c(ccc3c2=O)OC(C)(C)C=C4)cc1OC [barbigerone],IC50,HepG2 cell lines,0.61 µM
COc1cc2c(cc1OC)[C@@H]1C(=O)c3ccc4c(c3O[C@@H]1CO2)C=CC(C)(C)O4 [deguelin],IC50,butyrylcholinesterase,14.2 µM
C[C@H]1O[C@H](O[C@H]2[C@H](O)[C@@H](O)[C@@H](O[C@H]3[C@H](O)[C@@H](O)C(O)O[C@@H]3CO)O[C@@H]2CO)[C@H](O)[C@@H](O)[C@@H]1N[C@H]1C=C(CO)[C@@H](O)[C@H](O)[C@H]1O (some centres unmarked) [acarbose],"α-glucosidase inhibition, inhibition rate (%)",α-glucosidase [4],57.2 ± 0.8%
same,"α-amylase inhibition, inhibition rate (%)",α-amylase,58.5 ± 1.9%
"COc1cccc2c1C(=O)c1c(O)c3c(c(O)c1C2=O)C[C@@](O)(C(=O)CO)C[C@@H]3O[C@H]1C[C@H](N)[C@H](O)[C@H](C)O1 [doxorubicin, reference compound]","viability at 24 h, 6.25 μg/mL",[1],4.62 ± 0.17%
same,"viability at 24 h, 12.5 μg/mL",[1],5.35 ± 0.27%
same,"viability at 24 h, 25 μg/mL",[1],4.59 ± 0.01%
same,"viability at 24 h, 50 μg/mL",[1],4.44 ± 0.08%
same,"viability at 24 h, 100 μg/mL",[1],5.96 ± 0.42%
same,IC50,RAW 264.7 cells,< 11.5 µM
same,viability at 6.25 μg/mL,[5],79.6 ± 1.89%
same,viability at 12.5 μg/mL,[5],74 ± 0.75%
same,viability at 25 μg/mL,[5],57.7 ± 1.71%
same,viability at 50 μg/mL,[5],52.8 ± 1.51%
same,viability at 100 μg/mL,[5],10.1 ± 3.11%
same,IC50,A549 cells,134 µM
same,viability at 6.25 μg/mL,[2],80 ± 2.48%
same,viability at 12.5 μg/mL,[2],73.9 ± 1.19%
same,viability at 25 μg/mL,[2],60.2 ± 1.51%
same,viability at 50 μg/mL,[2],17.8 ± 1.49%
same,viability at 100 μg/mL,[2],16.8 ± 1.29%
same,IC50,SW480 cells,53.4 µM
same,viability at 12.5 μg/mL,[6],70.3 ± 0.89%
same,viability at 25 μg/mL,[6],59.5 ± 1.8%
same,viability at 50 μg/mL,[6],49.6 ± 2.2%
same,viability at 100 μg/mL,[6],32.4 ± 0.89%
same,IC50,K562 cells,86.8 µM
"CC(C)=CCc1c(O)c(CC=C(C)C)c2occ(-c3ccc(O)cc3)c(=O)c2c1O [Compound 10, 6,8-diprenylgenistein]",IC50,RAW 264.7 cells,> 100 µM
same,IC50,A549 cells,> 100 µM
same,viability at 6.25 μg/mL,[2],117.5 ± 0.31%
same,viability at 12.5 μg/mL,[2],118.8 ± 0.92%
same,viability at 25 μg/mL,[2],117 ± 3.08%
same,viability at 50 μg/mL,[2],94.7 ± 3.85%
same,viability at 100 μg/mL,[2],77 ± 3.95%
same,IC50,SW480 cells,> 100 µM
same,IC50,K562 cells,> 100 µM
same,viability,[3]; RAW 264.7 and SW480 cells,5.66 to 77%
C=C(C)[C@H]1Cc2c(ccc3c2O[C@@H]2COc4cc(OC)c(OC)cc4[C@@H]2C3=O)O1 [(−)-rotenone],IC50,HT-29,0.3 µM
berectones A,IC50,α-glucosidase [7],144 µM
COc1cc2c(cc1OC)[C@]1(O)C(=O)c3ccc4c(c3O[C@@H]1CO2)C=CC(C)(C)O4 [tephrosin],cell toxicity,[8]; at a concentration of 3.125 μM,without cell toxicity
same,IC50,[8]; read-out: anti-inflammatory activity IC50,< 10 µM
C=C(C)[C@H]1Cc2c(ccc3c2O[C@@H]2COc4cc(OC)c(OC)cc4[C@]2(O)C3=O)O1 [(−)-Hydroxyrotenone],IC50,HT-29,0.1 µM
"CC(C)=CCc1c2c(c3occ(-c4ccc(O)cc4)c(=O)c3c1O)CC(C(C)(C)O)O2 (centres unmarked) [Compound 16, senegalensin]","viability at 24 h, 6.25 μg/mL",[1],154 ± 1.59%
same,"viability at 24 h, 12.5 μg/mL",[1],139 ± 6.94%
same,"viability at 24 h, 25 μg/mL",[1],58.7 ± 2.23%
same,"viability at 24 h, 50 μg/mL",[1],6 ± 0.65%
same,"viability at 24 h, 100 μg/mL",[1],5.3 ± 0.01%
same,IC50,RAW 264.7 cells,51.5 µM
same,viability at 6.25 μg/mL,[5],126 ± 1.36%
same,viability at 12.5 μg/mL,[5],116 ± 2.68%
same,viability at 25 μg/mL,[5],97 ± 9.76%
same,viability at 50 μg/mL,[5],6.25 ± 0.33%
same,viability at 100 μg/mL,[5],4.53 ± 0.07%
same,IC50,A549 cells,70.9 µM
same,viability at 6.25 μg/mL,[2],166 ± 6.12%
same,viability at 12.5 μg/mL,[2],142 ± 1.71%
same,viability at 25 μg/mL,[2],122 ± 6.64%
same,viability at 50 μg/mL,[2],6.6 ± 0.14%
same,viability at 100 μg/mL,[2],6.09 ± 0.11%
same,IC50,SW480 cells,69.8 µM
same,viability at 6.25 μg/mL,[6],76.6 ± 3.38%
same,viability at 12.5 μg/mL,[6],28.8 ± 0.39%
same,viability at 25 μg/mL,[6],11.54 ± 0.06%
same,viability at 50 μg/mL,[6],10.2 ± 0.15%
same,viability at 100 μg/mL,[6],9.7 ± 0.15%
same,IC50,K562 cells,21.5 µM
same,viability,"[3]; A549, SW480, K562 and RAW 264.7 cells",4.53 to 48.2%
